Values of other authors, collected in PMC6270667, “Loddigesiinols G–J: α-Glucosidase Inhibitors from Dendrobium loddigesii” (Molecules, 2014).

Biological target: α-glucosidase (Saccharomyces cerevisiae, UniProt P53341)
Design: method as in PMID 16478243
Conditions: reported in the literature

Chain of α-glucosidase (P53341 whole entry): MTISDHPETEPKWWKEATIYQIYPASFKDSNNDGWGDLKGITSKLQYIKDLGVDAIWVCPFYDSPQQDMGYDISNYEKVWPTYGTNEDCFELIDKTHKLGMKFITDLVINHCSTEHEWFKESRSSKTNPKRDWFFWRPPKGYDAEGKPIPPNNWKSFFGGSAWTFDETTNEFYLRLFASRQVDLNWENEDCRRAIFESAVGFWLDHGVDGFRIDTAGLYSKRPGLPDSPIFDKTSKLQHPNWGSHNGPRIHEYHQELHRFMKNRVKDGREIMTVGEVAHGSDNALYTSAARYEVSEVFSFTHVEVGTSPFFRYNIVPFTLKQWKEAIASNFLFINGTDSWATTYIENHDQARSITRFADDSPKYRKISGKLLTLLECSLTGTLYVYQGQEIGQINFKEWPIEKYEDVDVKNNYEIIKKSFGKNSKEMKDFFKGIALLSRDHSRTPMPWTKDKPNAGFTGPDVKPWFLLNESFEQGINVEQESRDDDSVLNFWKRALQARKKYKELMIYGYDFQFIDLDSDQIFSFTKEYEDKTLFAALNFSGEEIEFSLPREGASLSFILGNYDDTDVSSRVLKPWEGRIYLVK

Oc1ccc(/C=C/c2cc(O)cc(O)c2)cc1 [trans-Resveratrol, trans-resveratrol]
α-glucosidase inhibitory effect compared with the clinical drug acarbose: more potent inhibitory effect than the clinical drug acarbose
